From patent US20260364184A1, “COMPOUND BASED ON OXOISOINDOLINYL-SUBSTITUTED TETRAHYDROPYRIMIDINE-DIONE AND USE THEREOF” (GLUETACS THERAPEUTICS (SHANGHAI) CO., LTD., priority 2023, published 2026)

Columns and labels:
Assay type in all cases: cell-based
[1] = system: Human diffuse large B-cell lymphoma cell line (TMD8); experiment: Inhibition of TMD8 cell proliferation (CellTiter luminescent viability); details: Homo sapiens, TMD8, 96 h, Table IF1, AR inhibitor-based; for inhibition at 0.01 µM: TMD8, 10 nM, read-out: Inhibition Rate at 10 nM (%); for inhibition at 0.5 µM: TMD8, 500 nM, read-out: Inhibition Rate at 500 nM (%)
AR = target: T1, AR (Homo sapiens, UniProt P10275); experiment: Western blot degradation of AR; details: LnCap Cell; 24 hours
T1 construct: expression of target proteins in cells; endogenous in cells
T1 sequence (P10275 1-920): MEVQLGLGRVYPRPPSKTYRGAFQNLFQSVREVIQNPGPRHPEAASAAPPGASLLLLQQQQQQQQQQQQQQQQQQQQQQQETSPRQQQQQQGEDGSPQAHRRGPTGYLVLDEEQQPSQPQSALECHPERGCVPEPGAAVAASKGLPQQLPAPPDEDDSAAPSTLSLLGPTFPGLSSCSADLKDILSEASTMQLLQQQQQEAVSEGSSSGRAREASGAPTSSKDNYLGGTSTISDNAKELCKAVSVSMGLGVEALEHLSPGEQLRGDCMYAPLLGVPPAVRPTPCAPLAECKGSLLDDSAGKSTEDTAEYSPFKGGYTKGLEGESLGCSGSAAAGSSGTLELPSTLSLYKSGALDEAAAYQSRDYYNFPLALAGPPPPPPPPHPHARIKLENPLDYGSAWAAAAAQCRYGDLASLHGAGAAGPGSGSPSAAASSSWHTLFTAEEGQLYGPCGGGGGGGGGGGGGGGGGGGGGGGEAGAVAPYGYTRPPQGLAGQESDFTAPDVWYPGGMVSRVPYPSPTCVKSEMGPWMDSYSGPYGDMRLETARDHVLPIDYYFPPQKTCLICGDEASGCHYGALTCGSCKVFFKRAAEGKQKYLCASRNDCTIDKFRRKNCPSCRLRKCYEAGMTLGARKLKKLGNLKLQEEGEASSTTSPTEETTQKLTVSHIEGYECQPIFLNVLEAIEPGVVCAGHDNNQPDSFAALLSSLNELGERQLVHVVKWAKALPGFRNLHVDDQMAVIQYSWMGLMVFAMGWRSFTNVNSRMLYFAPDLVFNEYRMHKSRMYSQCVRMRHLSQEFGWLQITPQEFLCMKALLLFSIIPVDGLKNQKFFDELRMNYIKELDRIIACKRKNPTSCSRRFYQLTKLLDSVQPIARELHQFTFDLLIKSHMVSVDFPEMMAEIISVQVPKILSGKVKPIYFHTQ
In short: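 Immunoblot of drug-treated versus DMSO-treated cell lysates, with densitometric quantification. Values: DC50 (50% band loss, fitted) and loading-control-normalised % remaining or degradation.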

[2] = system: Human T lymphocytic leukemia cell line (Jurkat); experiment: Inhibition of Jurkat cell proliferation (CellTiter luminescent viability); details: 96 hours; for inhibition at 0.01 µM / inhibition at 0.5 µM: Homo sapiens, Table IF3, AR inhibitor-based; for inhibition at 0.01 µM: 10 nM, read-out: Inhibition Rate at 10 nM (%); for inhibition at 0.5 µM: 500 nM, read-out: Inhibition Rate at 500 nM (%); for IC50: Table IA1, IRAK4 inhibitor-based, read-out: Inhibitory activity (IC50, nM) on tumor cell proliferation, Jurkat
[3] = Inhibition of RPMI-8226 cell proliferation (CellTiter luminescent viability); details: Homo sapiens; Table IA4, IRAK4 inhibitor-based; RPMI-8226, 10 nM, 96 hours; read-out: Inhibition Rate at 10 nM (%)
[4] = system: Human Multiple myeloma cell line (MM.1S); experiment: Inhibition of MM.1S cell proliferation (CellTiter luminescent viability); details: 96 hours; for IC50: Table IA1, IRAK4 inhibitor-based, read-out: Inhibitory activity (IC50, nM) on tumor cell proliferation, MM.1S; for inhibition at 0.01 µM / inhibition at 0.5 µM: Homo sapiens, MM1.S, Table IA5, IRAK4 inhibitor-based; for inhibition at 0.01 µM: 10 nM, read-out: Inhibition Rate at 10 nM (%); for inhibition at 0.5 µM: 500 nM, read-out: Inhibition Rate at 500 nM (%)
In short: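 IC50 is fitted from luminescent viability (CellTiter-Meiluncell) curves. Nine-point, 5-fold dilution series (top stock 2000 μM) are added at 0.5 μL per 100 μL medium to cells plated the day before, with growth at 37 °C and 5% CO2.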

| SMILES | inhibition at 0.01 µM [1] [%] | inhibition at 0.5 µM [1] [%] | Degradation of substrate protein AR (substrate protein remaining %) (AR) | inhibition at 0.01 µM [3] [%] | further results |
| --- | --- | --- | --- | --- | --- |
| N#Cc1ccc(O[C@H]2CC[C@H](NC(=O)c3ccc(N4CCC(CN5C[C@@H]6C[C@H]5CN6c5ccc6c(c5)C(=O)N(N5CCC(=O)NC5=O)C6=O)CC4)nn3)CC2)cc1Cl [GT-05226, N-((1r,4r)-4-(3-chloro-4-cyanophenoxy)cyclohexyl)-6-(4-(((1S,4S)-5-(2-(2,4-dioxotetrahydropyrimidin-1(2H)-yl)-1,3-dioxoisoindolin-5-yl)-2,5-diazabicyclo[2.2.1]heptan-2-yl)methyl)piperidin-1-yl)pyridazine-3-carboxamide] | 10 to 15 | 25 to 30 | A (0%≤substrate protein remaining %≤80%) | – | – |
| N#Cc1ccc(O[C@H]2CC[C@H](NC(=O)c3ccc(N4CCC(CN5CC6CCC5CN6c5ccc6c(c5)C(=O)N(N5CCC(=O)NC5=O)C6=O)CC4)nn3)CC2)cc1Cl (stereo partly shown) [GT-05832, N-((1r,4r)-4-(3-chloro-4-cyanophenoxy)cyclohexyl)-6-(4-((5-(2-(2,4-dioxotetrahydropyrimidin-1(2H)-yl)-1,3-dioxoisoindolin-5-yl)-2,5-diazabicyclo[2.2.2]octan-2-yl)methyl)piperidin-1-yl)pyridazine-3-carboxamide] | 10 to 15 | 40 to 60 | A (0%≤substrate protein remaining %≤80%) | – | inhibition at 0.01 µM [2]: 0 to 5%; inhibition at 0.5 µM [2]: 20 to 30% |
| O=C1CCN(N2C(=O)c3ccc(N4C5CC4CN(C[C@H]4CC[C@H](n6cc(NC(=O)c7cnn8ccc(N9C[C@H]%10C[C@@H]9CO%10)nc78)c(C(F)F)n6)CC4)C5)cc3C2=O)C(=O)N1 [GT-05242, 5-((1R,4R)-2-oxa-5-azabicyclo[2.2.1]heptan-5-yl)-N-(3-(difluoromethyl)-1-((1r,4R)-4-((6-(2-(2,4-dioxotetrahydropyrimidin-1(2H)-yl)-1,3-dioxoisoindolin-5-yl)-3,6-diazabicyclo[3.1.1]heptan-3-yl)methyl)cyclohexyl)-1H-pyrazol-4-yl)pyrazolo[1,5-a]pyrimidine-3-carboxamide] | – | – | – | 20 to 25 | – |
| O=C1CCN(N2Cc3cc(CN4CCC(n5cc(NC(=O)c6coc(-c7ccnc(NCC8CC8)c7)n6)c(C(F)F)n5)CC4)ccc3C2=O)C(=O)N1 [GT-04951, 2-(2-((cyclopropylmethyl)amino)pyridin-4-yl)-N-(3-(difluoromethyl)-1-(1-((2-(2,4-dioxotetrahydropyrimidin-1(2H)-yl)-1-oxoisoindolin-5-yl)methyl)piperidin-4-yl)-1H-pyrazol-4-yl) oxazole-4-carboxamide] | – | – | – | – | IC50 [2]: 100 to 300 nM; IC50 [4]: 10 to 50 nM |
| CC(C)(O)c1cc2nc(C3CCN(Cc4ccc5c(c4)CN(N4CCC(=O)NC4=O)C5=O)CC3)oc2cc1NC(=O)c1cccc(C(F)(F)F)n1 [GT-05748, N-(2-(1-((2-(2,4-dioxotetrahydropyrimidin-1(2H)-yl)-1-oxoisoindolin-5-yl)methyl)piperidin-4-yl)-5-(2-hydroxypropan-2-yl)benzo[d]oxazol-6-yl)-6-(trifluoromethyl) picolinamide] | – | – | – | 30 to 40 | – |
| O=C1CCN(N2Cc3cc(CN4CCC(n5cc(NC(=O)c6cnn7ccc(N8CCOCC8)nc67)c(C(F)F)n5)CC4)ccc3C2=O)C(=O)N1 [GT-05749] | – | – | – | 25 to 30 | inhibition at 0.01 µM [4]: 20 to 25%; inhibition at 0.5 µM [4]: 80 to 100% |
| CC1(C)[C@H](NC(=O)c2ccc(N3CCC(CN4CC5CCC4CN5c4ccc5c(c4)C(=O)N(N4CCC(=O)NC4=O)C5=O)CC3)nc2)C(C)(C)[C@H]1Oc1ccc(C#N)c(Cl)c1 (stereo partly shown) [GT-05834, N-((1r,3r)-3-(3-chloro-4-cyanophenoxy)-2,2,4,4-tetramethylcyclobutyl)-6-(4-((5-(2-(2,4-dioxotetrahydropyrimidin-1(2H)-yl)-1,3-dioxoisoindolin-5-yl)-2,5-diazabicyclo[2.2.2]octan-2-yl)methyl)piperidin-1-yl)nicotinamide] | 15 to 20 | 40 to 60 | A (0%≤substrate protein remaining %≤80%) | – | inhibition at 0.01 µM [2]: 15 to 20%; inhibition at 0.5 µM [2]: 40 to 60% |
| O=C1CCN(N2Cc3cc(CN4CCC(n5cc(NC(=O)c6cnn7ccc(N8C[C@H]9C[C@@H]8CO9)nc67)c(C(F)F)n5)CC4)ccc3C2=O)C(=O)N1 [GT-05028, 5-((1R,4R)-2-oxa-5-azabicyclo[2.2.1]heptan-5-yl)-N-(3-(difluoromethyl)-1-(1-((2-(2,4-dioxotetrahydropyrimidin-1(2H)-yl)-1-oxoisoindolin-5-yl)methyl)piperidin-4-yl)-1H-pyrazol-4-yl)pyrazolo[1,5-a]pyrimidine-3-carboxamide] | – | – | – | – | IC50 [2]: 100 to 300 nM; IC50 [4]: 10 to 50 nM |
| O=C1CCN(N2C(=O)c3cccc(N4CCC(CN5CCC(n6cc(NC(=O)c7cnn8ccc(N9C[C@H]%10C[C@@H]9CO%10)nc78)c(C(F)F)n6)CC5)CC4)c3C2=O)C(=O)N1 [GT-05285, 5-((1R,4R)-2-oxa-5-azabicyclo[2.2.1]heptan-5-yl)-N-(3-(difluoromethyl)-1-(1-((1-(2-(2,4-dioxotetrahydropyrimidin-1(2H)-yl)-1,3-dioxoisoindolin-4-yl)piperidin-4-yl)methyl)piperidin-4-yl)-1H-pyrazol-4-yl)pyrazolo[1,5-a]pyrimidine-3-carboxamide] | – | – | – | 30 to 40 | inhibition at 0.01 µM [4]: 40 to 60%; inhibition at 0.5 µM [4]: 60 to 80% |
